Key:
[1] = oral administration; cited from earlier work
[2] = Mouse Acute Toxicity Assay (oral, 7 days observation); settings: in vivo, ICR-type male mice, single forced oral administration 1000 and 2000 mg/kg, estimated from survival ratio
Method: Mouse Acute Toxicity Assay
The present Example was carried out in order to confirm the safety of the novel compound according to the present invention. In the following the assay method used will be explained.
Assay method: After ICR-type male mice (body weight=20~25 g) were fasted for 16 hours, each substance to be tested was forcibly administered orally at 1000 mg/kg and 2000 mg/kg to groups of five mice, using a esophageal sound. After administration, the mice were kept in cages for seven days, following which observations were made on the general conditions and existence of dead animals. From the survival ratio of the mice at the end of the observation, the lethal dose 50 (LD50) was estimated.
The results of the mouse acute toxicity assay are recorded in Tables 1 and 2.

[3] = test system: Hartley-type male guinea pigs; experiment: Guinea Pig Homogeneous Skin Passive Anaphylaxis Assay (PCA reaction); type: in vivo, guinea pig (Hartley-type); settings: for inhibition in vivo at 10 mg/kg: 10 mg/kg oral
Procedure, shortened: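 Male Hartley guinea pigs (250~300 g) given intradermal back injections of 120-fold-diluted anti-OVA serum; 48 h later test substance dosed orally at 10 mg/kg, then challenged i.v. with OVA plus Evans Blue. Dye-spot area (long × short diameter, mm^2) measured at 30 min; inhibition % calculated against solvent control.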

mice = settings: Tranilast, cited from earlier work
[4] = Cavia porcellus, 48 h after sensitization, read-out: Allergic reaction inhibitory index (%)

SMILES | LD50 at 168 h [2] [mg/kg] | inhibition in vivo at 10 mg/kg [3, 4] [%] | also measured
O=C(O)c1cc(=O)c2c(OCC(O)COc3cccc4oc(C(=O)O)cc(=O)c34)cccc2o1 [Disodium Cromoglicate] | – | – | absorption into the living body [1]: difficult to absorb
CC(=O)Oc1ccc2oc(=O)c(OC/C=C(\C)CCC=C(C)C)c(O)c2c1 [Compound 271, 3-(geranyloxy)-4-hydroxy-6-(acetoxy)-2H-1-benzopyran-2-one] | > 1000 | 33 | –
COc1c(O)c2cc(OC(C)=O)ccc2oc1=O [Compound 270, 3-(methoxy)-4-hydroxy-6-(acetoxy)-2H-1-benzopyran-2-one] | > 2000 | 35 | –
COc1ccc(/C=C/C(=O)Nc2ccccc2C(=O)O)cc1OC [Tranilast, reference compound] | – | – | inhibition in vivo at 100 mg/kg ([3]; Cavia porcellus, positive control, 100 mg/kg oral, 48 h after sensitization, read-out: Allergic reaction inhibitory index (%)): 52%; anti-allergic action, compounds of the invention (10 mg/kg) versus Tranilast (100 mg/kg) ([3]; oral): approximately equal to or less than the anti-allergic action exhibited by the compounds of the present invention; acute toxic value (LD50) (mice; background): 680 to 780 mg/kg; LD50 (mice; male mice): 780 mg/kg
CC(C)=CCC/C(C)=C/COc1c(O)c2cc(O)ccc2oc1=O [Compound 269, 4,6-(dihydroxy)-3-(geranyloxy)-2H-1-benzopyran-2-one] | > 1000 | 33 | –
CC(C)=CCC/C(C)=C/COc1ccc2oc(=O)c(O)c(O)c2c1 [Compound 280, 3,4-(dihydroxy)-6-(geranyloxy)-2H-1-benzopyran-2-one] | > 1000 | 35 | –

From patent publication US5428059A, “Benzopyran derivatives and an anti-allergic agent possessing the same as the active ingredient” (Dainippon Ink & Chemicals, Inc., priority 1991, dated 1995)
